According to ChEMBL document CHEMBL4819127, “Syntheses and antimicrobial activities of ogipeptin derivatives” (Bioorg Med Chem Lett, 2021):
Converted amounts (≈) assume the structure as drawn. The source made the active and inactive calls. The calls are words filed in the database; no cut-off is given here.

Experiments:
Klebsiella pneumoniae [1] = assay: Antibacterial activity against Klebsiella pneumoniae IHMA 1387833 assessed as bacterial growth inhibition; type: functional
[2] = Cytotoxicity against HEK293 cells; type: cell-based; settings: human, HEK293 cells
Pseudomonas aeruginosa [3] = assay: Antibacterial activity against Pseudomonas aeruginosa ATCC 27853 assessed as bacterial growth inhibition; type: functional
HepG2 = assay: Cytotoxicity against human HepG2 cells; type: functional
Klebsiella pneumoniae [4] = assay: Antibacterial activity against Klebsiella pneumoniae ATCC 700721 assessed as bacterial growth inhibition; type: functional
Pseudomonas aeruginosa [5] = assay: Antibacterial activity against Pseudomonas aeruginosa ATCC 15692 assessed as bacterial growth inhibition; type: functional
Escherichia coli [6] = assay: Antibacterial activity against Escherichia coli ATCC 47076 assessed as bacterial growth inhibition; type: functional
Pseudomonas aeruginosa [7] = assay: Antibacterial activity against Pseudomonas aeruginosa IHMA 1375891 assessed as bacterial growth inhibition; type: functional
Klebsiella pneumoniae [8] = assay: Antibacterial activity against Klebsiella pneumoniae JCM 1662 assessed as bacterial growth inhibition; type: functional
Acinetobacter baumannii [9] = assay: Antibacterial activity against Acinetobacter baumannii IHMA 1312713 assessed as bacterial growth inhibition; type: functional
Klebsiella pneumoniae [10] = assay: Antibacterial activity against Klebsiella pneumoniae ATCC 10031 assessed as bacterial growth inhibition; type: functional
Acinetobacter baumannii [11] = assay: Antibacterial activity against Acinetobacter baumannii ATCC 19606 assessed as bacterial growth inhibition; type: functional; settings: ATCC 19606 = CIP 70.34 = JCM 6841
Pseudomonas aeruginosa [12] = assay: Antibacterial activity against multidrug resistance Pseudomonas aeruginosa; type: functional, organism-based
Acinetobacter = assay: Antibacterial activity against Acinetobacter sp.; type: functional, organism-based
Klebsiella pneumoniae [13] = assay: Antibacterial activity against Klebsiella pneumoniae; type: functional, organism-based
Escherichia coli [14] = assay: Antibacterial activity against Escherichia coli; type: functional, organism-based

| MIC (Klebsiella pneumoniae [1]) [µg/mL] | MIC (Pseudomonas aeruginosa [3]) [µg/mL] | MIC (Klebsiella pneumoniae [4]) [µg/mL] | MIC (Pseudomonas aeruginosa [5]) [µg/mL] | MIC (Escherichia coli [6]) [µg/mL] | MIC (Pseudomonas aeruginosa [7]) [µg/mL] | MIC (Klebsiella pneumoniae [8]) [µg/mL] | MIC (Acinetobacter baumannii [9]) [µg/mL] | MIC (Klebsiella pneumoniae [10]) [µg/mL] | MIC (Acinetobacter baumannii [11]) [µg/mL] | Compound | CC50 [2] [µM] | CC50 (HepG2) [µM] | Activity (Pseudomonas aeruginosa [12]) | Activity (Acinetobacter) | Activity (Klebsiella pneumoniae [13]) | Activity (Escherichia coli [14]) |
| --- | --- | --- | --- | --- | --- | --- | --- | --- | --- | --- | --- | --- | --- | --- | --- | --- |
| > 256 | 32 (≈ 28 µM) | > 256 | > 128 | 128 (≈ 112 µM) | > 128 | > 128 | > 128 | 64 (≈ 55.9 µM) | > 128 | C/C=C1\NC(=O)C(NC(=O)c2cn3c4c(c(N5CCN(C)CC5)c(F)cc4c2=O)OC[C@@H]3C)C(O)CNC(=O)C(C(O)CN)NC(=O)C(C(O)CN)NC(=O)[C@H](CCCNC(=N)N)NC(=O)[C@H](CC(C)C)NC(=O)[C@H](CCN)NC1=O (stereo partly specified) | > 64 | > 64 | – | – | – | – |
| > 256 | 8 (≈ 7.01 µM) | > 256 | 32 (≈ 28.1 µM) | 2 (≈ 1.75 µM) | 64 (≈ 56.1 µM) | > 256 | > 256 | 4 (≈ 3.51 µM) | 32 (≈ 28.1 µM) | C/C=C1\NC(=O)C(NC(=O)Cc2c(C)n(C(=O)c3ccc(Cl)cc3)c3ccc(OC)cc23)C(O)CNC(=O)C(C(O)CN)NC(=O)C(C(O)CN)NC(=O)[C@H](CCCNC(=N)N)NC(=O)[C@H](CC(C)C)NC(=O)[C@H](CCN)NC1=O (stereo partly specified) | > 64 | > 64 | – | – | – | – |
| > 256 | 8 (≈ 7.45 µM) | > 256 | > 256 | 8 (≈ 7.45 µM) | > 256 | > 256 | > 256 | 32 (≈ 29.8 µM) | 256 (≈ 238 µM) | C/C=C1\NC(=O)C(NC(=O)[C@H]2CC[C@H](CNC(=O)OCc3ccccc3)CC2)C(O)CNC(=O)C(C(O)CN)NC(=O)C(C(O)CN)NC(=O)[C@H](CCCNC(=N)N)NC(=O)[C@H](CC(C)C)NC(=O)[C@H](CCN)NC1=O (stereo partly specified) | > 64 | > 64 | – | – | – | – |
| > 64 | 16 (≈ 15 µM) | 64 (≈ 60.1 µM) | > 64 | 32 (≈ 30.1 µM) | > 64 | > 64 | > 64 | > 64 | > 64 | C/C=C1\NC(=O)C(NC(=O)c2cn3c4c(c(F)c(F)cc4c2=O)OC[C@@H]3C)C(O)CNC(=O)C(C(O)CN)NC(=O)C(C(O)CN)NC(=O)[C@H](CCCNC(=N)N)NC(=O)[C@H](CC(C)C)NC(=O)[C@H](CCN)NC1=O (stereo partly specified) | > 64 | > 64 | – | – | – | – |

Continued, compound first:

| Compound | MIC (Klebsiella pneumoniae [1]) [µg/mL] | MIC (Pseudomonas aeruginosa [3]) [µg/mL] | MIC (Klebsiella pneumoniae [4]) [µg/mL] | MIC (Pseudomonas aeruginosa [5]) [µg/mL] | MIC (Escherichia coli [6]) [µg/mL] | MIC (Pseudomonas aeruginosa [7]) [µg/mL] | MIC (Klebsiella pneumoniae [8]) [µg/mL] | MIC (Acinetobacter baumannii [9]) [µg/mL] | MIC (Klebsiella pneumoniae [10]) [µg/mL] | MIC (Acinetobacter baumannii [11]) [µg/mL] | CC50 [2] [µM] | CC50 (HepG2) [µM] | Activity (Pseudomonas aeruginosa [12]) | Activity (Acinetobacter) | Activity (Klebsiella pneumoniae [13]) | Activity (Escherichia coli [14]) |
| --- | --- | --- | --- | --- | --- | --- | --- | --- | --- | --- | --- | --- | --- | --- | --- | --- |
| C/C=C1\NC(=O)C(NC(=O)CCCCCCCCC)C(O)CNC(=O)C(C(O)CN)NC(=O)C(C(O)CN)NC(=O)[C@H](CCCNC(=N)N)NC[C@H](CC(C)C)NC(=O)[C@H](CCN)NC1=O (stereo partly specified) | – | – | – | – | – | – | – | – | – | – | – | – | Active | inactive | inactive | Active |
| C/C=C1\NC(=O)C(NC(=O)C2CC3(CCN(C(=O)OC(C)(C)C)CC3)c3ccccc32)C(O)CNC(=O)C(C(O)CN)NC(=O)C(C(O)CN)NC(=O)[C@H](CCCNC(=N)N)NC(=O)[C@H](CC(C)C)NC(=O)[C@H](CCN)NC1=O (stereo partly specified) | > 256 | 16 (≈ 14.4 µM) | > 256 | > 256 | 4 (≈ 3.59 µM) | > 256 | > 256 | > 256 | 4 (≈ 3.59 µM) | 256 (≈ 230 µM) | > 64 | > 64 | – | – | – | – |
| C/C=C1\NC(=O)C(NC(=O)c2ccc(NS(=O)(=O)Cc3ccccc3)cc2)C(O)CNC(=O)C(C(O)CN)NC(=O)C(C(O)CN)NC(=O)[C@H](CCCNC(=N)N)NC(=O)[C@H](CC(C)C)NC(=O)[C@H](CCN)NC1=O (stereo partly specified) | > 256 | 256 (≈ 238 µM) | > 256 | > 256 | 16 (≈ 14.9 µM) | > 256 | > 256 | > 256 | 128 (≈ 119 µM) | > 256 | > 64 | > 64 | – | – | – | – |
| C/C=C1\NC(=O)C(NC(=O)c2ccc(-c3nnn(CC(=O)N(C)C)n3)cc2)C(O)CNC(=O)C(C(O)CN)NC(=O)C(C(O)CN)NC(=O)[C@H](CCCNC(=N)N)NC(=O)[C@H](CC(C)C)NC(=O)[C@H](CCN)NC1=O (stereo partly specified) | > 256 | 128 (≈ 121 µM) | > 256 | > 256 | 16 (≈ 15.1 µM) | > 256 | > 256 | > 256 | 256 (≈ 242 µM) | > 256 | > 64 | > 64 | – | – | – | – |
| COLISTIN | 32 | 2 | 1 | 2 | 1 | 64 | 4 | 8 | 1 | 2 | – | > 64 | – | – | – | – |
| C/C=C1\NC(=O)C(NC(=O)Cc2ccc(NC(=O)Nc3c(C)cccc3C)c(Cl)c2)C(O)CNC(=O)C(C(O)CN)NC(=O)C(C(O)CN)NC(=O)[C@H](CCCNC(=N)N)NC(=O)[C@H](CC(C)C)NC(=O)[C@H](CCN)NC1=O (stereo partly specified) | > 256 | 128 (≈ 115 µM) | > 256 | > 256 | 4 (≈ 3.59 µM) | > 256 | > 256 | > 256 | 128 (≈ 115 µM) | > 256 | > 64 | > 64 | – | – | – | – |
